This passage reports GI50 and IC50 results from US9580390B2, “Indazole compounds as kinase inhibitors and method of treating cancer with same” (University Health Network, priority 2011, dated 2017).

Assay [1] has as its system colon cancer cells (HCT116). Description: Cancer cell line growth inhibition (SRB assay). Format: cell-based. To be noted: Homo sapiens, HCT-116; HCT116 colon cancer cells, SRB assay; read-out: Cancer Cell Line GI50 Range HCT116. Background: In SRB staining, fixed cells bind dye roughly in proportion to their protein.
Description: Breast cancer cells (MDA-MB-231), colon cancer cells (HCT116) and ovarian cancer cells (PA-1) were seeded (1000 to 4000 in 80 μl per well depending on the cell growth rate) into 96 well plates 24 hours before compound overlay. Compounds were prepared as 10 mM stock solutions in 100% DMSO which were diluted with DMEM (Dulbecco's Modified Eagle's Medium) cell growth Medium (Invitrogen, Burlington, ON, Canada) containing 10% FBS (Fetal Bovine Serum) to concentrations ranging from 50 nM to 250 μM. Aliquots (20 μl) from each concentration were overlaid to 80 μl of the pre-seeded cells in the 96 well plates to make final concentrations of 10 nM to 50 μM. The cells were cultured for 5 days before the Sulforhodamine B assay (SRB) was performed to determine the compound's cell growth inhibition activity.
Sulforhodamine B (purchased from Sigma, Oakville, ON, Canada) is a water-soluble dye that binds to the basic amino acids of the cellular proteins. Thus, colorimetric measurement of the bound dye provides an estimate of the total protein mass that is related to the cell number. the cells are fixed in situ by gently aspirating off the culture media and adding 50 μl ice cold 10% Trichloroacetic Acid (TCA) per well and incubate at 4° C. for 30-60 min. The plates are washed with H2O five times and allowed to air dry for 5 min. Addition of 50 μl 0.4% (w/v) SRB solution in 1% (v/v) acetic acid to each well and incubation for 30 min at RT completes the staining reaction. Following staining, plates are washed four times with 1% acetic acid to remove unbound dye and then allowed to air dry for 5 min. The stain is solubilized with 100 μl of 10 mM Tris pH 10.5 per well. Absorbance is read at 570 nm.
The percentage (%) of relative growth inhibition was calculated by comparing to DMSO treated only cells (100%). GI50's were determined for compounds with cytotoxic activity. The GI50 was calculated using GraphPad PRISM software (GraphPad Software, Inc., San Diego, Calif., USA).
Assay [2] deals with ovarian cancer cells (PA-1). Kind of assay: Cancer cell line growth inhibition (SRB assay). Format: cell-based. To be noted: PA-1 ovarian cancer cells, SRB assay; read-out: Cancer Cell Line GI50 Range PA-1.
The subject of the next assay is TICs (Colon 12). Kind of assay: Colon tumor-initiating cell growth inhibition (Alamar Blue). Format: cell-based. Particulars: 216 h; colon TICs, 9 days, Alamar Blue; read-out: Tumor Initiating Cell GI50 Range Colon 12. For orientation: Alamar Blue is a resazurin reagent that responds to reducing activity.
A further assay concerns TICs (Ovarian 2393A). Description: Ovarian tumor-initiating cell growth inhibition (Alamar Blue). To be noted: 144 h; ovarian TICs, 6 days, Alamar Blue; read-out: Tumor Initiating Cell GI50 Range Ovarain 2393A. Format: cell-based.
Another assay addresses T1, human PLK4 (Homo sapiens, UniProt O00444).
T1 construct: amino terminal GST fusion of residues 1-391 of human PLK4; made in house; host or cells: E. coli
T1 sequence (O00444 1-391): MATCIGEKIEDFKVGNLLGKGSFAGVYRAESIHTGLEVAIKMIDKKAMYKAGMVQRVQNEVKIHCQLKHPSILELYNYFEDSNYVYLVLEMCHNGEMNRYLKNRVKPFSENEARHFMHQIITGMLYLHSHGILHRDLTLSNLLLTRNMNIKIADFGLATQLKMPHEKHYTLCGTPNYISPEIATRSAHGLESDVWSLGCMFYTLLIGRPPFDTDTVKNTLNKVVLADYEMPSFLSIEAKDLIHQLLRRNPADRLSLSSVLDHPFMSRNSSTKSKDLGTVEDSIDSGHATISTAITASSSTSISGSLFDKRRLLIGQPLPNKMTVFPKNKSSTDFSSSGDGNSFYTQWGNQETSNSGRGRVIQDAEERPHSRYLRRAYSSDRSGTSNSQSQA
Kind of assay: PLK4 inhibition assay (indirect ELISA). To be noted: 15 μM ATP. Format: biochemical. The method in brief:
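Dephosphorylated GST-PLK4 (residues 1-391, E. coli; 4 nM) was preincubated 15 min with compound, then reacted 30 min with 15 μM ATP in HEPES pH 7.4, MgCl2, Brij 35 on MBP-coated plates. Phospho-MBP was detected by antibody/HRP ELISA at 450 nm; IC50 from 10-point titration by 4-parameter logistic fit, or single 10 μM % inhibition.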
Background: An ELISA detects its analyte on a solid surface through an enzyme-linked reagent.

Excerpt for TICs (Ovarian 2393A): Materials and Methods: Non-tissue or tissue cultured treated T-75 flask and 96-well plates were purchased from VWR. Vitamin B-27 supplement, MEM NEAA (minimum essential medium non essential amino acids), sodium pyruvate, L-glutamine, N2 supplement, penicillin-streptomycin and fungizone/amphotericin B were obtained from Invitrogen. Lipid mixture, heparin and EGF were purchased from Sigma; bFGF from BD Biosciences. Tumor Initiating Cells (TICs) from colon were routinely maintained using non-tissue cultured treated T-75 flasks in DMEM:F12 medium containing 0.2×B-27 supplement, 4 ug/ml heparin, 1×MEM NEAA, 1× sodium pyruvate, 1 mM glutamine, 10 pg/ul bFGF, 20 pg/ul EGF, 1×N2 supplement, lipid mixture, penicillin-streptomycin and fungizone/amphotericin B. Ovarian TICs were routinely maintained using tissue cultured treated T-75 flasks in DMEM:F12 medium containing 1×B-27 supplement, 4 ug/ml heparin, 20 pg/ul bFGF, 20 pg/ul EGF and penicillin-streptomycin.
Assay Protocol: Compounds described herein were dissolved in DMSO and further diluted in cell culture medium for GI50 determination. Colon TICs were trypsinized and seeded into non-tissue cultured treated 96-well plates with 4,000 cells/well. After 24 h, compound was added into the cell culture at different concentrations, and the final concentration of DMSO was adjusted to 0.1%. Cells were then cultured at 37° C. for 9 days. Ovarian TICs were trypsinized and seeded into tissue cultured treated 96-well plates with 1,000 cells/well. After 24 h, compound was added into the cell culture at different concentrations, and the final concentration of DMSO was adjusted to 0.1%. Cells were then cultured at 37° C. for 6 days. Cell viability was assessed by Alamar Blue assay: 10 ul of Alamar Blue was added into each well. After 4 hours incubation at 37° C., fluorescence was recorded at excitation 544 and emission 590. GI50 (Growth inhibition) was calculated using GraphPad Prism 4.0 software.

For orientation: GI50 means the concentration giving 50% growth inhibition. The IC50 is the concentration needed to halve the response being measured. Turning to `O=CN1CCC(Oc2ccc(-c3n[nH]c4ccc(C(=O)NC(c5ccsc5)C5CC5)cc34)cc2)CC1` (stereo not drawn) [Example A186, N-(cyclopropyl(thiophen-3-yl)methyl)-3-(4-((1-formylpiperidin-4-yl)oxy)phenyl)-1H-indazole-5-carboxamide], the concentration for 50% growth inhibition (GI50) (in assay [1]; in assay [2]; with TICs (Colon 12); in the assay on TICs (Ovarian 2393A)) was below 100 nM throughout. For the same compound, the IC50 at human PLK4 is below 50 nM.
In the case of `CC(C)OC(C(=O)Nc1ccc2[nH]nc(-c3ccc(OC4CCN(C)CC4)cc3)c2c1)c1ccccc1` (stereo not drawn) [Example A187, 2-isopropoxy-N-(3-(4-((1-methylpiperidin-4-yl)oxy)phenyl)-1H-indazol-5-yl)-2-phenylacetamide], the GI50 is below 100 nM in assay [1], below 100 nM in assay [2], 100 to 500 nM in the assay with TICs (Colon 12) and above 500 nM in the assay on TICs (Ovarian 2393A). Moreover, the IC50 at human PLK4 was below 50 nM.
Consider `O=C(Nc1ccc2[nH]nc(-c3ccc(OC4CCN(C5COC5)CC4)cc3)c2c1)C(c1ccsc1)N1CCCC1` (stereo not drawn) [Example A184, N-(3-(4-((1-(oxetan-3-yl)piperidin-4-yl)oxy)phenyl)-1H-indazol-5-yl)-2-(pyrrolidin-1-yl)-2-(thiophen-3-yl)acetamide], for which the 50% growth inhibitory concentration (GI50) in assay [1] is below 100 nM; in assay [2], below 100 nM; with TICs (Colon 12) it was 100 to 500 nM; with TICs (Ovarian 2393A), below 100 nM. Moreover, the half-inhibitory concentration (IC50) at human PLK4 is below 50 nM.
Take `O=CN1CCC(Oc2ccc(-c3n[nH]c4ccc(NC(=O)C(c5ccsc5)N5CCCC5)cc34)cc2)CC1` (stereo not drawn) [Example A118, N-(3-(4-((1-formylpiperidin-4-yl)oxy)phenyl)-1H-indazol-5-yl)-2-(pyrrolidin-1-yl)-2-(thiophen-3-yl)acetamide]: the concentration for 50% growth inhibition (GI50) was below 100 nM in assay [1], below 100 nM in assay [2], 100 to 500 nM in the assay on TICs (Colon 12) and below 100 nM with TICs (Ovarian 2393A). Also, at human PLK4, the IC50 was below 50 nM.
For the compound `CN1CCC(Oc2ccc(-c3n[nH]c4ccc(C(=O)N[C@@H](c5sccc5Cl)C5CC5)cc34)cc2)CC1` [Example A166, (R)-N-((3-chlorothiophen-2-yl)(cyclopropyl)methyl)-3-(4-((1-methylpiperidin-4-yl)oxy)phenyl)-1H-indazole-5-carboxamide], the 50% growth inhibitory concentration (GI50) (in assay [1]; in assay [2]; in the assay with TICs (Colon 12); in the assay with TICs (Ovarian 2393A)) was below 100 nM each time. For the same compound, the IC50 at human PLK4 was below 50 nM.
`CN1CCC(Oc2ccc(-c3n[nH]c4ccc(C(=O)NC(c5ccccc5)C5CC5)cc34)cc2Cl)CC1` (stereo not drawn) [Example A188, 3-(3-chloro-4-((1-methylpiperidin-4-yl)oxy)phenyl)-N-(cyclopropyl(phenyl)methyl)-1H-indazole-5-carboxamide]: the GI50 in assay [1] is 100 to 500 nM; in assay [2], 100 to 500 nM; in the assay on TICs (Colon 12) it was above 500 nM; with TICs (Ovarian 2393A), above 500 nM. The IC50 at human PLK4 is below 50 nM.
For the compound `CN1CCC(Oc2ccc(-c3n[nH]c4ccc(C(=O)NC(c5ccsc5)C5CCCC5)cc34)cc2)CC1` (stereo not drawn) [Example A110, N-(cyclopentyl(thiophen-3-yl)methyl)-3-(4-((1-methylpiperidin-4-yl)oxy)phenyl)-1H-indazol-5-carboxamide], the GI50 in assay [1] was below 100 nM; in assay [2] it was below 100 nM; in the assay on TICs (Colon 12), below 100 nM; in the assay with TICs (Ovarian 2393A), 100 to 500 nM. At human PLK4, the half-maximal inhibitory concentration (IC50) was below 50 nM.
On to `COCCN1CCC(Oc2ccc(-c3n[nH]c4ccc(C(=O)N[C@H](c5ccsc5)C5CC5)cc34)cc2)CC1` [Example A154, (S)-N-(cyclopropyl(thiophen-3-yl)methyl)-3-(4-((1-(2-methoxyethyl)piperidin-4-yl)oxy)phenyl)-1H-indazole-5-carboxamide], for which the GI50 was below 100 nM in assay [1], 100 to 500 nM in assay [2], below 100 nM with TICs (Colon 12) and below 100 nM with TICs (Ovarian 2393A). The IC50 on human PLK4 is below 50 nM.
Turning to `CC[C@H](NC(=O)c1ccc2[nH]nc(-c3ccc(OC4CCN(C5COC5)CC4)cc3)c2c1)c1ccccc1Cl` [Example A193, (S)-N-(1-(2-chlorophenyl)propyl)-3-(4-((1-(oxetan-3-yl)piperidin-4-yl)oxy)phenyl)-1H-indazole-5-carboxamide], the GI50 in assay [1] is below 100 nM; in assay [2] it was below 100 nM; with TICs (Colon 12), below 100 nM; in the assay on TICs (Ovarian 2393A), 100 to 500 nM. Moreover, the half-inhibitory concentration (IC50) at human PLK4 was below 50 nM.
As to `COCCN1CCC(Oc2ccc(-c3n[nH]c4ccc(NC(=O)C(c5ccsc5)N5CCCC5)cc34)cc2)CC1` (stereo not drawn) [Example A175, N-(3-(4-((1-(2-methoxyethyl)piperidin-4-yl)oxy)phenyl)-1H-indazol-5-yl)-2-(pyrrolidin-1-yl)-2-(thiophen-3-yl)acetamide], the concentration for 50% growth inhibition (GI50) in assay [1] was below 100 nM; in assay [2], below 100 nM; with TICs (Colon 12), 100 to 500 nM; in the assay with TICs (Ovarian 2393A), below 100 nM. Also, the 50% inhibitory concentration (IC50) on human PLK4 is below 50 nM.
On to `CN1CCC(Oc2ccc(-c3n[nH]c4ccc(C(=O)N[C@H](CCO)c5ccccc5)cc34)cc2)CC1` [Example A137, (R)-N-(3-hydroxy-1-phenylpropyl)-3-(4-((1-methylpiperidin-4-yl)oxy)phenyl)-1H-indazole-5-carboxamide], for which the GI50 was below 100 nM in assay [1], 100 to 500 nM in assay [2], above 500 nM in the assay with TICs (Colon 12) and 100 to 500 nM in the assay with TICs (Ovarian 2393A). Besides, the IC50 on human PLK4 is below 50 nM.
As for `CN1CCC(Oc2ccc(-c3n[nH]c4ccc(C(=O)N[C@H](c5sccc5Cl)C5CC5)cc34)cc2)CC1` [Example A167, (S)-N-((3-chlorothiophen-2-yl)(cyclopropyl)methyl)-3-(4-((1-methylpiperidin-4-yl)oxy)phenyl)-1H-indazole-5-carboxamide], the concentration for 50% growth inhibition (GI50) was below 100 nM in assay [1], 100 to 500 nM in assay [2], below 100 nM in the assay with TICs (Colon 12) and below 100 nM in the assay on TICs (Ovarian 2393A). The IC50 at human PLK4 is below 50 nM.
On to `O=CN1CCC(Oc2ccc(-c3n[nH]c4ccc(NC(=O)C(c5ccccn5)C5CCCC5)cc34)cc2)CC1` (stereo not drawn) [Example A176, 2-cyclopentyl-N-(3-(4-((1-formylpiperidin-4-yl)oxy)phenyl)-1H-indazol-5-yl)-2-(pyridin-2-yl)acetamide], for which the GI50 (in assay [1]; in assay [2]; with TICs (Colon 12); with TICs (Ovarian 2393A)) was 100 to 500 nM in each case. For the same compound, the IC50 at human PLK4 was below 50 nM.
In the case of `CN1CCC(Oc2ccc(-c3n[nH]c4ccc(NC(=O)C(c5ccccc5)C5CC5)cc34)cc2)CC1` (stereo not drawn) [Example A138, 2-cyclopropyl-N-(3-(4-((1-methylpiperidin-4-yl)oxy)phenyl)-1H-indazol-5-yl)-2-phenylacetamide], the concentration for 50% growth inhibition (GI50) in assay [1] was below 100 nM; in assay [2], below 100 nM; in the assay on TICs (Colon 12) it was below 100 nM; in the assay on TICs (Ovarian 2393A), 100 to 500 nM. At human PLK4, the IC50 is below 50 nM.
Consider `CN1CCC(Oc2ccc(-c3n[nH]c4ccc(C(=O)NC(c5ccccc5F)C5CC5)cc34)cc2)CC1` (stereo not drawn) [Example A136, N-(cyclopropyl(2-fluorophenyl)methyl)-3-(4-((1-methylpiperidin-4-yl)oxy)phenyl)-1H-indazole-5-carboxamide], for which the GI50 was below 100 nM in assay [1], below 100 nM in assay [2], above 500 nM in the assay with TICs (Colon 12) and below 100 nM in the assay on TICs (Ovarian 2393A). Further, on human PLK4, the IC50 was below 50 nM.
